Here are results for 29 compounds from US8178688B2, “Benzamidine derivatives, process for the preparation thereof and pharmaceutical composition comprising the same” (Dong Wha Pharmaceutical Co., Ltd., priority 2004, dated 2012).

One assay concerns osteoclast differentiation. Description: Inhibitory effects on osteoclast differentiation (co-culture of bone marrow cells with osteoblast, TRAP staining). The settings on record: Mus musculus, Osteoclast, 168 h, read-out: % inhibitory activity on osteoclastogenesis. Type of assay: cell-based, mice. As for the experimental part: The effect of benzamidine derivatives of the present invention on osteoclast proliferation and differentiation process was evaluated via co-culture with osteoblast.
Tibia and Femora were aseptically ectomized from male ddY mice of 6-8 weeks to harvest bone marrow cells by using a syringe (21G, Korea Green Cross).
The bone marrow cells were suspended in 5 mL α-MEM medium (Gibco BRL Co.) containing sodium bicarbonate (2.0 g/L), streptomycin (100 mg/L) and penicillin ([…]). The harvested cells were centrifuged at 600×g for 5 mins to collect the whole quantity. To remove the red blood cells within bone marrow cells, 3 mL of Tris HCl (0.83% NH4Cl, pH7.5) was added and well mixed. After centrifuging above cells, the numbers of bone marrow cells were counted and then, the bone marrow cells were immediately used for co-culture system with osteoblast.
The calvaria were aseptically ectomized from neonate ICR mice of 1˜2 days, washed with PBS solution and incubated with a mixture of enzyme solution (0.2% collagenase and 0.1% dispase) at 37° C. gentle shaker. This procedure was sequentially repeated (10, 10, 10, 20, 20 and 20 mins), and then the calvaria cells having the characteristics of osteoblast mostly released from III-VI digestion groups were collected and washed with the medium (serum-free α-MEM). The washed cells were cultivated in α-MEM medium containing 10% FBS for 2˜3 days. After subculturing, these cells were used for this experiment, and diluted to reach the concentration of 1×10^6 cell/mL for storage at −70° C.
Benzamidine derivatives of the present invention were dissolved in a sterile distilled water or ethanol to make desired concentrations following dilution. The final volume of specimen added to the medium was determined at the ratio of 1:1000.
Bone marrow cells prepared, in the above and osteoblast from calvaria were co-cultured for osteoclast differentiation. Both bone marrow cells (25,000 cells/cm^2) and osteoblast (10,000 cells/cm^2) were plated on a 96 well plate in α-MEM medium containing FBS with specimen, and then cultured with test materials for 7 days. Differentiation factors, such as dexamethasone (10^−7M) and vitamin D3 (10^−8M), were also continuously added to the medium from the first day of cultivation. The medium was changed with fresh media containing a mixture of specimens and differentiation factors every 2˜3 day.
TRAP was used as a marker to measure osteoclast in consideration of its characteristics showing a positive reaction to TRAP staining solution. TRAP staining solution was prepared in a manner that 5 mg of naphtol AS-MS phosphate (sigma N-4875), a substrate and 25 mg of coloring agent (Fast Red Violet LB salt) were dissolved in N,N-dimethylformamide (about 0.5 mL), 0.1N NaHCO3 buffer solution (50 mL) containing 50 mM tartaric acid was added, and the reaction mixture was stored at refrigerator prior to use.
After culturing the cells for 7 days, the medium was removed from the wells, the cells were once washed with PBS solution and fixed to PBS containing 10% formalin for 2˜5 mins. The cells were fixed again in a mixed solution of ethanol and acetone (1/1) for about 1 min, and dried off. The cells were further treated by TRAP staining solution for 15 mins and washed with PBS. The experimental results were measured by counting the number of osteoclasts with 3 or more nuclei showing TRAP-positive reaction under a microscopic examination. Each of tests was confirmed over three times for gaining more reliable data.
As shown in the following table 7, the inhibitory effect of each experimental group on the differentiation of osteoclast versus controls was expressed by inhibitory percentage value.
For the compound `CCCCCc1nc(-c2ccc(OCCCCCOc3ccc(C(=N)NO)cc3)cc2)c(C(C)C)s1` [Example 28, N-hydroxy-4-(5-[4-(5-isopropyl-2-pentyl-1,3-thiazol-4-yl)phenoxy]pentoxy)-benzamidine], the inhibition at 1 µM came to 29.6%.
With `CCCCCc1nc(-c2ccc(OCCCCCOc3ccc(C(=N)NO)cc3)cc2)c(CCCC)s1` [Example 36, N-hydroxy-4-(5-[4-(5-butyl-2-pentyl-1,3-thiazol-4-yl)phenoxy]pentoxy)-benzamidine], the inhibition at 1 µM amounted to 46.4%.
Still for that read-out and setting: the result for `CCCN1CCC(c2nc(-c3ccc(OCCCCCOc4ccc(C(=N)NO)cc4)cc3)c(CC3CCCC3)s2)CC1` [Example 68, N-hydroxy-4-(5-[4-(5-cyclopentylmethyl-2-(1-propyl-piperidin-4-yl)-1,3-thiazol-4-yl)phenoxy]pentoxy)-benzamidine] reads 83%.

Staying with this assay, now noted: Mus musculus, Osteoclast, 168 h; 1 m; co-culture of bone marrow cells and osteoblast, 7 days, TRAP-positive osteoclasts versus controls; read-out: % inhibitory activity on osteoclastogenesis.
Regarding `CCCCc1sc(NC(=N)N)nc1-c1ccc(OCCCCCOc2ccc(C(=N)NO)cc2)cc1` [Example 64, N-hydroxy-4-(5-[4-(5-butyl-2-guanidino-1,3-thiazol-4-yl)phenoxy]pentoxy)-benzamidine], the inhibition at 1 µM was found to be 43.7%.
Turning to `N=C(NO)c1ccc(OCCCCCOc2ccc(-c3nc(N)sc3Cc3ccccc3)cc2)cc1` [Example 65, N-hydroxy-4-(5-[4-(2-amino-5-benzyl-1,3-thiazol-4-yl)phenoxy]pentoxy)-benzamidine], the inhibition at 1 µM is 46%.
With `N=C(N)Nc1nc(-c2ccc(OCCCCCOc3ccc(C(=N)NO)cc3)cc2)c(Cc2ccccc2)s1` [Example 66, N-hydroxy-4-(5-[4-(5-benzyl-2-guanidino-1,3-thiazol-4-yl)phenoxy]pentoxy)-benzamidine], the inhibition at 1 µM was 38.5%.
Same read-out and setting: in the case of `Cc1sc(NC(=O)C(C)C)nc1-c1ccc(OCCCCCOc2ccc(C(=N)NO)cc2)cc1` [Example 69, N-hydroxy-4-(5-[4-(2-(isobutyryl)amino-5-methyl-1,3-thiazol-4-yl)phenoxy]pentoxy)-benzamidine] it was 99.6%.

The assay is the same for the next values; noted with them: Mus musculus, Osteoclast, 168 h; 1 μm; co-culture of bone marrow cells and osteoblast, 7 days, TRAP-positive osteoclasts versus controls; read-out: % inhibitory activity on osteoclastogenesis.
On to `Cc1sc(C(C)C)nc1-c1ccc(OCCCCCOc2ccc(C(=N)NO)cc2)cc1` [Example 1, N-hydroxy-4-(5-[4-(2-isopropyl-5-methyl-1,3-thiazol-4-yl)phenoxy]pentoxy)-benzamidine], for which the inhibition at 1 µM came to 87%.
As to `Cc1sc(C(C)C)nc1-c1ccc(OCCCCCOc2ccc(C(=N)N)cc2)cc1` [Example 2, 4-(5-[4-(2-isopropyl-5-methyl-1,3-thiazol-4-yl)phenoxy]pentoxy)-benzamidine], the inhibition at 1 µM was determined as 78.4%.
The same measure, in the same setting: in the case of `CCc1nc(-c2ccc(OCCCCCOc3ccc(C(=N)NO)cc3)cc2)cs1` [Example 4, N-hydroxy-4-(5-[4-(2-ethyl-1,3-thiazol-4-yl)phenoxy]pentoxy)-benzamidine] it was 81.1%.
As to `CCc1sc(C)nc1-c1ccc(OCCCCCOc2ccc(C(=N)NO)cc2)cc1` [Example 17, N-hydroxy-4-(5-[4-(5-ethyl-2-methyl-1,3-thiazol-4-yl)phenoxy]pentoxy)-benzamidine], the inhibition at 1 µM amounted to 59.1%.
The same measure, in the same setting: in the case of `CCc1sc(C(C)C)nc1-c1ccc(OCCCCCOc2ccc(C(=N)NO)cc2)cc1` [Example 19, N-hydroxy-4-(5-[4-(5-ethyl-2-isopropyl-1,3-thiazol-4-yl)phenoxy]pentoxy)-benzamidine] it was 42.6%; in that of `CCc1nc(-c2ccc(OCCCCCOc3ccc(C(=N)NO)cc3)cc2)c(C(C)C)s1` [Example 24, N-hydroxy-4-(5-[4-(2-ethyl-5-isopropyl-1,3-thiazol-4-yl)phenoxy]pentoxy)-benzamidine], 57.8%; in that of `CC(C)c1nc(-c2ccc(OCCCCCOc3ccc(C(=N)NO)cc3)cc2)c(C(C)C)s1` [Example 25, N-hydroxy-4-(5-[4-(2,5-diisopropyl-1,3-thiazol-4-yl)phenoxy]pentoxy)-benzamidine], 26.5%.
On the same count and under the same terms, the result for `CC(C)c1sc(-c2ccccc2)nc1-c1ccc(OCCCCCOc2ccc(C(=N)NO)cc2)cc1` [Example 26, N-hydroxy-4-(5-[4-(5-isopropyl-2-phenyl-1,3-thiazol-4-yl)phenoxy]pentoxy)-benzamidine] reads 42.9%; that for `CC(C)c1sc(-c2cccnc2)nc1-c1ccc(OCCCCCOc2ccc(C(=N)NO)cc2)cc1` [Example 27, N-hydroxy-4-(5-[4-(5-isopropyl-2-pyridin-3-yl-1,3-thiazol-4-yl)phenoxy]pentoxy)-benzamidine], 56.5%.
Still for that read-out and setting: in the case of `CCCc1sc(C)nc1-c1ccc(OCCCCCOc2ccc(C(=N)NO)cc2)cc1` [Example 29, N-hydroxy-4-(5-[4-(2-methyl-5-propyl-1,3-thiazol-4-yl)phenoxy]pentoxy)-benzamidine] it was 96.3%.
Turning to `CCCCc1sc(-c2ccccc2)nc1-c1ccc(OCCCCCOc2ccc(C(=N)NO)cc2)cc1` [Example 33, N-hydroxy-4-(5-[4-(5-butyl-2-phenyl-1,3-thiazol-4-yl)phenoxy]pentoxy)-benzamidine], the inhibition at 1 µM stood at 49.5%.
Consider `Cc1nc(-c2ccc(OCCCCCOc3ccc(C(=N)NO)cc3)cc2)c(Cc2ccccc2)s1` [Example 38, N-hydroxy-4-(5-[4-(5-benzyl-2-methyl-1,3-thiazol-4-yl)phenoxy]pentoxy)-benzamidine], for which the inhibition at 1 µM worked out at 56.8%.
Still for that read-out and setting: the result for `Cc1nc(-c2ccc(OCCCCCOc3ccc(C(=N)NO)cc3)cc2)c(CCCl)s1` [Example 42, N-hydroxy-4-(5-[4-(5-(2-chloro-ethyl)-2-methyl-1,3-thiazol-4-yl)phenoxy]pentoxy)-benzamidine] reads 90.9%; that for `Cc1nc(-c2ccc(OCCCCCOc3ccc(C(=N)NO)cc3)cc2)c(CC(C)C)s1` [Example 44, N-hydroxy-4-(5-[4-(5-isobutyl-2-methyl-1,3-thiazol-4-yl)phenoxy]pentoxy)-benzamidine], 96.6%.
As to `Cc1nc(-c2ccc(OCCCCCOc3ccc(C(=N)N)cc3)cc2)cs1` [Example 52, 4-(5-[4-(2-methyl-1,3-thiazol-4-yl)phenoxy]pentoxy)-benzamidine], the inhibition at 1 µM was 0%.
On the same count and under the same terms, the result for `CC(C)c1nc(-c2ccc(OCCCCCOc3ccc(C(=N)N)cc3)cc2)cs1` [Example 53, 4-(5-[4-(2-isopropyl-1,3-thiazol-4-yl)phenoxy]pentoxy)-benzamidine] reads 0%; that for `Cc1nc(-c2ccc(OCCCCCOc3ccc(C(=N)N)cc3)cc2)c(C)s1` [Example 54, 4-(5-[4-(2,5-dimethyl-1,3-thiazol-4-yl)phenoxy]pentoxy)-benzamidine], 94.2%; that for `CCc1sc(C(C)C)nc1-c1ccc(OCCCCCOc2ccc(C(=N)N)cc2)cc1` [Example 55, 4-(5-[4-(5-ethyl-2-isopropyl-1,3-thiazol-4-yl)phenoxy]pentoxy)-benzamidine], 67.8%.
Same read-out and setting: in the case of `CCc1sc(-c2ccccc2)nc1-c1ccc(OCCCCCOc2ccc(C(=N)N)cc2)cc1` [Example 56, 4-(5-[4-(5-ethyl-2-phenyl-1,3-thiazol-4-yl)phenoxy]pentoxy)-benzamidine] it was 58.7%; in that of `CCc1sc(N)nc1-c1ccc(OCCCCCOc2ccc(C(=N)NO)cc2)cc1` [Example 60, N-hydroxy-4-(5-[4-(2-amino-5-ethyl-1,3-thiazol-4-yl)phenoxy]pentoxy)-benzamidine], 28.2%.
As for `CC(C)c1sc(N)nc1-c1ccc(OCCCCCOc2ccc(C(=N)NO)cc2)cc1` [Example 61, N-hydroxy-4-(5-[4-(2-amino-5-isopropyl-1,3-thiazol-4-yl)phenoxy]pentoxy)-benzamidine], the inhibition at 1 µM came to 0%.
Consider `CC(C)c1sc(NC(=N)N)nc1-c1ccc(OCCCCCOc2ccc(C(=N)NO)cc2)cc1` [Example 62, N-hydroxy-4-(5-[4-(2-guanidino-5-isopropyl-1,3-thiazol-4-yl)phenoxy]pentoxy)-benzamidine], for which the inhibition at 1 µM was found to be 19.1%.
